We go through 2 compounds from PMC9926489, “Chemical Optimization of Selective Pseudomonas aeruginosa LasB Elastase Inhibitors and Their Impact on LasB-Mediated Activation of IL-1β in Cellular and Animal Infection Models” (ACS Infectious Diseases, 2023).

Data set [1] in a line: Cytotoxicity screening (MTS), SAEC. Format: cell-based. The following applies: human, small airway epithelial cells (SAEC). The method, then:
Bronchial smooth muscle cells (BSMC, Lonza CC-2576), small airway epithelial cells (SAEC, Lonza CC-2547), or HepG2 cells (ATCC HB-8065) were seeded in 96-well plates at a density of 25,000 per well. Culture of these cells throughout the protocol utilized incubation at 37 °C, 5% CO2 in a humidified atmosphere, with BSMC and SAEC cells cultured in cell-specific media (Lonza) and HepG2 cells cultured in RPMI 1640 medium containing Glutamax (Gibco) and 10% fetal bovine serum. Plates containing BSMC cells were collagen coated to assist with cell adhesion. Following an overnight settling period, media was replaced with fresh media, with, or without, compound. Compound concentrations tested were 1, 3, 10, 30, and 100 μM, in duplicate. The cells were incubated with compound for 24 h. Control (1% DMSO) and positive standards terfenadine- and salmeterol-treated groups were included for both cell lines. […] The reaction was stopped with 12.5 μL of 10% SDS, plates briefly shaken, and absorbance (490 nm) read using a Spectramax M5e plate reader (Molecular Devices). Percentages of viable cells were calculated as: (test sample Abs 490 nM-mean blank Abs 490 nm)/(mean control Abs 490 nM-mean blank Abs 490 nm) × 100.

Another data set relates to IL-1β activation. As to the kind of experiment: IL-1β activation in P. aeruginosa-infected THP-1 macrophages (HEK IL-1R-lux reporter assay). It counts as cell-based, human. The settings on record: Homo sapiens; PAO1-infected THP-1 macrophages, IL-1 reporter assay; read-out: EC50, decrease in IL-1β activation. The procedure: Further to showing in vitro inhibition of LasB-mediated pro-IL-1β proteolysis, experiments were performed to determine the effect of compounds 12 and 16 on IL-1β activation and functionality in human macrophage cell cultures infected with P. aeruginosa PAO1, or an isogenic lasB deletion mutant thereof (ΔlasB). In these experiments, the levels of LasB activity in culture supernatants were measured via hydrolysis of the Sub115 fluorescent peptide, while the effect of LasB activity on IL-1β activation (functionality) was measured using a luciferase reporter cell line sensitive to IL-1β induction (Figure 3).
Human THP-1 macrophages were cultured by conventional methods then, pre-infection, culture media were replaced by RPMI lacking phenol red and antibiotics. […] After 2 h post-infection, 50 μL aliquots of supernatant were removed and used to quantitate both LasB activity and IL-1β functionality. To determine LasB activity, 50 μL of supernatant was added to Sub115 IL-1β peptide and hydrolysis of Sub115 was monitored spectrophotometrically with excitation at 355 nm and emission at 450 nm, as described above. Results were expressed as relative fluorescence units (RFU).
To determine IL-1β functionality, generation of an IL-1 signal was quantified by adding 50 μL of supernatant to HEK IL-1R-lux reporter cells cultured in RPMI supplemented with 5% heat-inactivated FBS, 200 μg/mL penicillin/streptomycin, 200 μg/mL hygromycin, 100 μg/mL zeomycin, and 0.5 μg/mL puromycin. No bacteria survived in this antibiotic condition; 18 h post-treatment, IL-1β-dependent luciferase induction was assayed by luminescence measured with D-luciferin substrate (Steady-Luc, Biotium) on a multimode reader (PerkinElmer) and expressed as relative luminescence units (RU), as previously described.[16]
In the first variation, experimental infections were performed with P. aeruginosa PAO1 and ΔlasB bacteria incubated with varying quantities of inhibitor at final concentrations ranging from 0.5 to 8 μM. […]
On the technique in general: In a reporter assay the amount or activity of a reporter protein is the signal.

A further data set concerns the target T1, LasB Q71L (Pseudomonas aeruginosa, UniProt P14756).
T1 construct: endogenous in cells; host or cells: P. aeruginosa clinical CF isolate, culture supernatant
As to the kind of experiment: LasB variant inhibition, culture supernatant: Q71L. Format: biochemical, P. aeruginosa. From the text: Compounds 12 and 16 were discovered as a result of optimizing potency against the LasB protein expressed from the wild-type (WT) reference strain P. aeruginosa PAO1. To understand the relative prevalence of the WT LasB protein versus other variants in clinical respiratory P. aeruginosa strains, the full-length lasB gene was amplified by PCR from 255 clinical isolates (obtained from CF sputum samples). […] Most changes were identified in the mature peptide, however some occurred in the propeptide domain, which could affect LasB processing (marked in italics in Table 4).
LasB inhibition assays were performed using purified LasB enzyme (1 ng/well) for compound screening or using culture supernatants (prepared as described in the ECR assay) for testing LasB variants. Hydrolysis of the fluorogenic peptide substrate 2-aminobenzoyl-Ala-Gly-Leu-Ala-4-nitrobenzylamide (Abz-AGLA-Nba; Peptide International) in 50 mM Tris-HCl (pH 7.4), supplemented with 2.5 mM CaCl2 was followed using an Envision microplate reader (PerkinElmer) at 315 nm excitation and 430 nm emission. […] IC50 values were determined from Hill plots using Dotmatics Studies ELN software. For the mechanism of inhibition studies, hydrolysis rates were measured in the presence of variable concentrations of substrate and inhibitor, and the inhibition constant (Ki) was determined using Dixon plot analysis.[31]

T1 sequence (P14756 198-498, stated change not applied): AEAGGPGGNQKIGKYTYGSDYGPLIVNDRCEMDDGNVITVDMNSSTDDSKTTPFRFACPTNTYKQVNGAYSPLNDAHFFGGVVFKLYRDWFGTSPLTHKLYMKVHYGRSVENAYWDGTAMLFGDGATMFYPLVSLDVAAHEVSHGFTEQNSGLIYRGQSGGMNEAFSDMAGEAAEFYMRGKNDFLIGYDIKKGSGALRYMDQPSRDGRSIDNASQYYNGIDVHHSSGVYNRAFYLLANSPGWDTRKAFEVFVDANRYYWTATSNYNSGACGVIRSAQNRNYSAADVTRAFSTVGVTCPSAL

For orientation: IC50 means the concentration at which inhibition is half-maximal. By EC50 is commonly meant the concentration at which the effect is half-maximal. Turning to `COc1cc2sc(CNC(=O)C3(CC(=O)O)Cc4ccccc4C3)nc2cc1OCCC[N+](C)(C)C` [Compound 12], the IC50 at 24 h in data set [1] is above 100000 nM. For the same compound, the EC50 in the data set with IL-1β activation was around 500 nM. Further, the IC50 on LasB Q71L turned out to be 214 nM.

`COc1cc2sc(CNC(=O)C3(CC(=O)O)Cc4cc(F)c(F)cc4C3)nc2cc1OCCC[N+](C)(CCO)CCO` [Compound 16] yielded an IC50 at 24 h in data set [1] above 100000 nM. The EC50 in the data set with IL-1β activation is around 500 nM. This compound registered an IC50 against LasB Q71L of 177 nM.
